Test results from the supplement of paper PMC10307832.

Key:
Experiment in all cases: relative viability (nuclei count vs DMSO), 5 days (fraction); higher = more cells survive
Idelalisib + Alpelisib = compound: CC[C@H](Nc1ncnc2[nH]cnc12)c1nc2cccc(F)c2c(=O)n1-c1ccccc1 [Idelalisib] + Cc1nc(NC(=O)N2CCC[C@H]2C(N)=O)sc1-c1ccnc(C(C)(C)C(F)(F)F)c1 [Alpelisib] (partner 2 µM)
Method in brief: (§1)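 One day after seeding in 1536-well plates, lung cancer cell lines were dosed by pin tool. Dosing was either single-drug or a fixed anchor-drug dose plus five library-drug doses (not always all listed) in √10 steps. After 5 days, nuclei were stained in one fix-and-stain step and counted on 4× images, and relative viability is the nuclei count of treated wells over that of vehicle wells, given as the median of duplicate plates.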

Idelalisib + Olaparib = compound: CC[C@H](Nc1ncnc2[nH]cnc12)c1nc2cccc(F)c2c(=O)n1-c1ccccc1 [Idelalisib] + O=C(c1cc(Cc2n[nH]c(=O)c3ccccc23)ccc1F)N1CCN(C(=O)C2CC2)CC1 [Olaparib] (partner 8 µM)
Method in brief: as §1

Pemetrexed + Alpelisib = compound: Nc1nc2[nH]cc(CCc3ccc(C(=O)N[C@@H](CCC(=O)O)C(=O)O)cc3)c2c(=O)[nH]1 [Pemetrexed] + Cc1nc(NC(=O)N2CCC[C@H]2C(N)=O)sc1-c1ccnc(C(C)(C)C(F)(F)F)c1 [Alpelisib] (partner 2 µM)
Method in brief: as §1

Pemetrexed + Phenformin = compound: Nc1nc2[nH]cc(CCc3ccc(C(=O)N[C@@H](CCC(=O)O)C(=O)O)cc3)c2c(=O)[nH]1 [Pemetrexed] + N=C(N)NC(=N)NCCc1ccccc1 [Phenformin] (partner 250 µM)
Method in brief: as §1

UMC-11 gave a relative viability (Idelalisib + Alpelisib; first compound 0.04 µM) of 1.15, a relative viability (Idelalisib + Alpelisib; first compound 0.1265 µM) of 0.999 and a relative viability (Idelalisib + Alpelisib; first compound 0.4 µM) of 0.966. The relative viability (Idelalisib + Alpelisib; first compound 1.265 µM) was 0.987, the relative viability (Idelalisib + Alpelisib; first compound 4 µM) was 1.05 and the relative viability (Idelalisib + Olaparib; first compound 0.04 µM) was 0.416. The relative viability (Idelalisib + Olaparib; first compound 0.1265 µM) was 0.347, the relative viability (Idelalisib + Olaparib; first compound 0.4 µM) was 0.407 and the relative viability (Idelalisib + Olaparib; first compound 1.265 µM) was 0.631. The relative viability (Idelalisib + Olaparib; first compound 4 µM) was 0.351, the relative viability (Pemetrexed + Alpelisib; first compound 0.002 µM) was 1.04 and the relative viability (Pemetrexed + Alpelisib; first compound 0.006325 µM) was 1.03. For the same cell line, the relative viability (Pemetrexed + Alpelisib; first compound 0.02 µM) was 1, the relative viability (Pemetrexed + Alpelisib; first compound 0.06325 µM) was 1.03 and the relative viability (Pemetrexed + Alpelisib; first compound 0.2 µM) was 0.829. For the same cell line, the relative viability (Pemetrexed + Phenformin; first compound 0.002 µM) was 0.325, the relative viability (Pemetrexed + Phenformin; first compound 0.006325 µM) was 0.311 and the relative viability (Pemetrexed + Phenformin; first compound 0.02 µM) was 0.312. It also gave a relative viability (Pemetrexed + Phenformin; first compound 0.06325 µM) of 0.334 and a relative viability (Pemetrexed + Phenformin; first compound 0.2 µM) of 0.347.
